For the test, the system named is STAT1 (phosphorylated at Tyr701) in NCI-H1373 cells. Nature of the test: Phospho-STAT1 (Tyr701) LANCE Ultra TR-FRET detection assay. Format: cell-based. To be noted: Homo sapiens, NCI-H1373, 48 h, induction of pSTAT1 in NCI-H1373 cells, 48 hours incubation; normalized to 10 uM positive control and DMSO; 4-parameter fit; read-out: NH1373 pSTAT1 EC50. The essentials: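 Endogenous pSTAT1 (Tyr701) induction measured in NCI-H1373 cells seeded onto compound and incubated 48 h at 37 °C. Lysates assayed by LANCE Ultra sandwich TR-FRET; 665/620 nm ratio normalized to 10 uM reference […] (positive) and DMSO (negative). EC50 from 4-parameter fit.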

As a reminder, the EC50 is the midpoint of the concentration-response curve. As to `CC(C)(O)c1cnc(-c2cc3c(F)cn(C[C@@H]4CCC[C@H](Oc5cn[nH]c(=O)c5C(F)(F)F)C4)c(=O)c3c(F)c2F)nc1` [Example 48, 4,7,8-trifluoro-6-(5-(2-hydroxypropan-2-yl)pyrimidin-2-yl)-2-(((1R,3S)-3-((6-oxo-5-(trifluoromethyl)-1,6-dihydropyridazin-4-yl)oxy)cyclohexyl)methyl)isoquinolin-1(2H)-one], the EC50 stood at 1.03 nM.

Take `O=c1[nH]ncc(N[C@H]2CCC[C@@H](Cn3cnc4cc(-c5ncc(OC(F)F)cn5)c(F)cc4c3=O)C2)c1C(F)(F)F` [Example 25, 7-(5-(difluoromethoxy)pyrimidin-2-yl)-6-fluoro-3-(((1R,3S)-3-((6-oxo-5-(trifluoromethyl)-1,6-dihydropyridazin-4-yl)amino)cyclohexyl)methyl)quinazolin-4(3H)-one]: the 50% effective concentration (EC50) is 3.78 nM.

Consider `N#Cc1cnc(-c2cc3ccn(C[C@@H]4CCC[C@H](Nc5cn[nH]c(=O)c5C(F)(F)F)C4)c(=O)c3cc2F)nc1` [Example 2, 2-(7-fluoro-1-oxo-2-(((1R,3S)-3-((6-oxo-5-(trifluoromethyl)-1,6-dihydropyridazin-4-yl)amino)cyclohexyl)methyl)-1,2-dihydroisoquinolin-6-yl)pyrimidine-5-carbonitrile], for which the half-maximal effective concentration (EC50) stood at 11.8 nM.

With `O=c1[nH]ncc(N[C@@H]2C[C@H](Cn3ccc4cc(-c5ncc(C(F)(F)F)cn5)c(F)cc4c3=O)CC[C@@H]2O)c1C(F)(F)F` (racemic) [Example 68, 7-fluoro-2-(((rac-1R,3R,4S)-4-hydroxy-3-((6-oxo-5-(trifluoromethyl)-1,6-dihydropyridazin-4-yl)amino)cyclohexyl)methyl)-6-(5-(trifluoromethyl)pyrimidin-2-yl)isoquinolin-1(2H)-one], the EC50 amounted to 65.1 nM.

With `Cc1nc(-c2cc3ccn(C[C@@H]4CCC[C@H](Nc5cn[nH]c(=O)c5C(F)(F)F)C4)c(=O)c3cc2F)ncc1C(F)(F)F` [Example 6, 7-fluoro-6-(4-methyl-5-(trifluoromethyl)pyrimidin-2-yl)-2-(((1R,3S)-3-((6-oxo-5-(trifluoromethyl)-1,6-dihydropyridazin-4-yl)amino)cyclohexyl)methyl)isoquinolin-1(2H)-one], the EC50 worked out at 5.13 nM.

Regarding `O=c1[nH]ncc(N[C@H]2CCC[C@@H](Cn3cc(Cl)c4cc(-c5ncc(C(F)F)cn5)c(F)c(F)c4c3=O)C2)c1C(F)(F)F` [Example 61], the EC50 stood at 1.33 nM.

`N#Cc1cnc(-c2cc3ccn(C[C@@H]4CCC[C@H](Nc5cn[nH]c(=O)c5C(F)(F)F)C4)c(=O)c3c(F)c2F)nc1` [Example 29, 2-(7,8-difluoro-1-oxo-2-(((1R,3S)-3-((6-oxo-5-(trifluoromethyl)-1,6-dihydropyridazin-4-yl)amino)cyclohexyl)methyl)-1,2-dihydroisoquinolin-6-yl)pyrimidine-5-carbonitrile]: the concentration giving a half-maximal response (EC50) worked out at 1.8 nM.

For `O=c1[nH]ncc(N[C@H]2CCC[C@@H](Cn3cc(F)c4cc(-c5ncc(OCCO)cn5)c(F)cc4c3=O)C2)c1C(F)(F)F` [Example 38], the EC50 was 12.5 nM.

In the case of `O=c1[nH]ncc(N[C@H]2C[C@@H](Cn3ccc4cc(-c5ncc(C(F)(F)F)cn5)c(F)cc4c3=O)CC(F)(F)C2)c1C(F)(F)F` (single isomer, unassigned) [Example 67], the EC50 was 100 nM.

`[2H]C([2H])([2H])Oc1cnc(-c2cc3c(F)cn(C[C@@H]4CCC[C@H](Nc5cn[nH]c(=O)c5C(F)(F)F)C4)c(=O)c3c(F)c2F)nc1` [Example 46, 4,7,8-trifluoro-2-[[(1R,3S)-3-[[6-oxo-5-(trifluoromethyl)-1H-pyridazin-4-yl]amino]cyclohexyl]methyl]-6-[5-(trideuteriomethoxy)pyrimidin-2-yl]isoquinolin-1-one]: the EC50 came out at 1.19 nM.

As to `O=C1c2cc(F)c(-c3ncc(C(F)F)cn3)cc2CCN1C[C@@H]1CCC[C@H](Nc2cn[nH]c(=O)c2C(F)(F)F)C1` [Example 72, 6-(5-(difluoromethyl)pyrimidin-2-yl)-7-fluoro-2-(((1R,3S)-3-((6-oxo-5-(trifluoromethyl)-1,6-dihydropyridazin-4-yl)amino)cyclohexyl)methyl)-3,4-dihydroisoquinolin-1(2H)-one], the EC50 is 3.74 nM.

`O=c1[nH]ncc(N[C@H]2CCC[C@@H](Cn3cc(F)c4cc(-c5ncc(OCCO)cn5)c(F)c(F)c4c3=O)C2)c1C(F)(F)F` [Example 36, 4,7,8-trifluoro-6-(5-(2-hydroxyethoxy)pyrimidin-2-yl)-2-(((1R,3S)-3-((6-oxo-5-(trifluoromethyl)-1,6-dihydropyridazin-4-yl)amino)cyclohexyl)methyl)isoquinolin-1(2H)-one]: the EC50 amounted to 4.21 nM.

Values taken from patent US20250100998A1, “PARP7 INHIBITORS” (Gilead Sciences, Inc., priority 2023, published 2025).
